Assays:
Assay in all cases: relative viability (nuclei count vs DMSO), 5 days (fraction); higher = more cells survive
Vemurafenib + Alpelisib = compound: CCCS(=O)(=O)Nc1ccc(F)c(C(=O)c2c[nH]c3ncc(-c4ccc(Cl)cc4)cc23)c1F [Vemurafenib] + Cc1nc(NC(=O)N2CCC[C@H]2C(N)=O)sc1-c1ccnc(C(C)(C)C(F)(F)F)c1 [Alpelisib] (partner 2 µM)
Summary of the method: (§1)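 Cells from lung cancer lines were seeded into 1536-well plates and, one day later, dosed by pin tool. Treatments were either a single drug or a fixed dose of an anchor drug with five library-drug doses (not always all listed) in √10 steps. After 5 days, nuclei were stained in a one-step fixation (final 0.05% Triton X-100, 1% formaldehyde, 1 ug/ml Hoechst) and counted on 4× images, and relative viability is the treated-to-vehicle nuclei ratio, as the median of duplicate plates.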

Vemurafenib + Luminespib = compound: CCCS(=O)(=O)Nc1ccc(F)c(C(=O)c2c[nH]c3ncc(-c4ccc(Cl)cc4)cc23)c1F [Vemurafenib] + CCNC(=O)c1noc(-c2cc(C(C)C)c(O)cc2O)c1-c1ccc(CN2CCOCC2)cc1 [Luminespib] (partner 0.01 µM)
Summary of the method: as §1

Vemurafenib + Pemetrexed = compound: CCCS(=O)(=O)Nc1ccc(F)c(C(=O)c2c[nH]c3ncc(-c4ccc(Cl)cc4)cc23)c1F [Vemurafenib] + Nc1nc2[nH]cc(CCc3ccc(C(=O)N[C@@H](CCC(=O)O)C(=O)O)cc3)c2c(=O)[nH]1 [Pemetrexed] (partner 0.2 µM)
Summary of the method: as §1

Alpelisib + Decitabine = compound: Cc1nc(NC(=O)N2CCC[C@H]2C(N)=O)sc1-c1ccnc(C(C)(C)C(F)(F)F)c1 [Alpelisib] + Nc1ncn([C@H]2C[C@H](O)[C@@H](CO)O2)c(=O)n1 [Decitabine] (partner 2 µM)
Summary of the method: as §1

Cell Line | relative viability (Vemurafenib + Alpelisib; first compound 0.03162 µM) | relative viability (Vemurafenib + Alpelisib; first compound 0.1 µM) | relative viability (Vemurafenib + Alpelisib; first compound 0.3162 µM) | relative viability (Vemurafenib + Alpelisib; first compound 1 µM) | relative viability (Vemurafenib + Luminespib; first compound 0.03162 µM) | relative viability (Vemurafenib + Luminespib; first compound 0.1 µM) | relative viability (Vemurafenib + Luminespib; first compound 0.3162 µM) | relative viability (Vemurafenib + Luminespib; first compound 1 µM) | relative viability (Vemurafenib + Pemetrexed; first compound 0.03162 µM) | relative viability (Vemurafenib + Pemetrexed; first compound 0.1 µM) | relative viability (Vemurafenib + Pemetrexed; first compound 0.3162 µM) | relative viability (Vemurafenib + Pemetrexed; first compound 1 µM) | relative viability (Alpelisib + Decitabine; first compound 0.04 µM) | relative viability (Alpelisib + Decitabine; first compound 0.1265 µM) | relative viability (Alpelisib + Decitabine; first compound 0.4 µM) | relative viability (Alpelisib + Decitabine; first compound 1.265 µM) | relative viability (Alpelisib + Decitabine; first compound 4 µM)
NCI-H647 | 0.898 | 1.12 | 0.995 | 0.891 | 0.157 | 0.165 | 0.138 | 0.212 | 0.164 | 0.174 | 0.169 | 0.198 | 0.423 | 0.497 | 0.537 | 0.306 | 0.35
NCI-H650 | 0.954 | 1.12 | 0.621 | 0.781 | 0.72 | 0.852 | – | 0.637 | 0.909 | 0.913 | 0.551 | 0.702 | 0.352 | 0.324 | 0.327 | 0.318 | 0.284
NCI-H661 | 0.43 | 0.478 | 0.409 | 0.58 | 0.979 | 0.806 | 0.897 | 0.953 | 1.01 | 0.929 | 0.978 | 0.929 | 0.56 | 0.586 | 0.576 | 0.474 | 0.495
NCI-H838 | 0.879 | 0.957 | – | 1.04 | 0.291 | 0.349 | – | 0.352 | 0.252 | 0.235 | 0.338 | 0.272 | 0.405 | 0.422 | 0.508 | 0.438 | 0.359
NCI-H1355 | 0.823 | 0.689 | 0.797 | 0.88 | 0.664 | 0.662 | 0.696 | 0.672 | 1.03 | 0.961 | 1.02 | 1.04 | 0.41 | 0.386 | 0.328 | 0.328 | 0.297
NCI-H1395 | 1.01 | 1.01 | – | 1.09 | 0.679 | 0.445 | – | 0.555 | 0.679 | 0.744 | 0.757 | 0.814 | 0.747 | 0.699 | 0.75 | 0.645 | 0.65
NCI-H1437 | 0.915 | 0.96 | 0.842 | 0.901 | 1.09 | 1.07 | 1.2 | 1.12 | 0.327 | 0.294 | 0.312 | 0.32 | 0.562 | 0.579 | 0.609 | 0.527 | 0.527
NCI-H1651 | 0.903 | 0.831 | 0.896 | 0.909 | 0.91 | 1.05 | 0.946 | 0.84 | 0.555 | 0.626 | 0.508 | 0.579 | 0.625 | 0.557 | 0.703 | 0.598 | 0.439
NCI-H1666 | 0.872 | – | 1.07 | 0.965 | 0.933 | 0.877 | 1.02 | 0.966 | 0.805 | 0.847 | 0.913 | 0.843 | 0.686 | 0.708 | 0.781 | 0.694 | 0.612
NCI-H1734 | 0.598 | 0.7 | 0.602 | 0.603 | 0.196 | 0.183 | 0.233 | 0.2 | 0.396 | 0.382 | 0.385 | 0.399 | 0.532 | 0.478 | 0.497 | 0.477 | 0.255
NCI-H1755 | 0.906 | 0.83 | 0.869 | 0.791 | 0.442 | 0.574 | 0.332 | 0.462 | 0.512 | 0.453 | 0.422 | 0.398 | 0.661 | 0.69 | 0.778 | 0.678 | 0.575
NCI-H1792 | 0.624 | 0.673 | 0.61 | 0.693 | 0.373 | 0.345 | 0.575 | 0.434 | 0.59 | 0.787 | – | 0.747 | 0.444 | 0.368 | 0.581 | 0.443 | 0.401
NCI-H1793 | 0.659 | – | 0.758 | 0.808 | 0.16 | – | 0.173 | 0.166 | 0.797 | 0.602 | 0.749 | 1.12 | 0.539 | 0.466 | 0.449 | 0.388 | 0.275
NCI-H1915 | 1.02 | 1.04 | 1.03 | 0.993 | 0.698 | 0.727 | 0.795 | 0.636 | 0.493 | 0.494 | 0.434 | 0.454 | 0.267 | 0.285 | 0.255 | 0.265 | 0.251
NCI-H1944 | 0.811 | 0.572 | 0.85 | 0.837 | 0.665 | 0.601 | 0.736 | 0.663 | 0.596 | – | 0.564 | 0.569 | 0.429 | 0.44 | 0.413 | 0.37 | 0.384
NCI-H1975 | 0.582 | 0.608 | 0.526 | 0.629 | 0.295 | 0.219 | – | 0.287 | 0.285 | 0.284 | 0.262 | 0.299 | 0.39 | 0.357 | 0.387 | 0.366 | 0.268

Cell Line | relative viability (Vemurafenib + Alpelisib; first compound 0.03162 µM) | relative viability (Vemurafenib + Alpelisib; first compound 0.1 µM) | relative viability (Vemurafenib + Alpelisib; first compound 0.3162 µM) | relative viability (Vemurafenib + Alpelisib; first compound 1 µM) | relative viability (Vemurafenib + Luminespib; first compound 0.03162 µM) | relative viability (Vemurafenib + Luminespib; first compound 0.1 µM) | relative viability (Vemurafenib + Luminespib; first compound 0.3162 µM) | relative viability (Vemurafenib + Luminespib; first compound 1 µM) | relative viability (Vemurafenib + Pemetrexed; first compound 0.03162 µM) | relative viability (Vemurafenib + Pemetrexed; first compound 0.1 µM) | relative viability (Vemurafenib + Pemetrexed; first compound 0.3162 µM) | relative viability (Vemurafenib + Pemetrexed; first compound 1 µM) | relative viability (Alpelisib + Decitabine; first compound 0.04 µM) | relative viability (Alpelisib + Decitabine; first compound 0.1265 µM) | relative viability (Alpelisib + Decitabine; first compound 0.4 µM) | relative viability (Alpelisib + Decitabine; first compound 1.265 µM) | relative viability (Alpelisib + Decitabine; first compound 4 µM)
NCI-H1993 | 0.62 | – | 0.585 | 0.647 | 0.465 | – | 0.773 | 0.86 | 0.67 | – | 0.642 | 0.628 | 0.547 | 0.561 | 0.592 | 0.494 | 0.671
NCI-H2009 | 1.16 | 1.1 | 1.02 | 1.11 | 0.93 | 0.912 | 0.861 | 0.921 | 1.13 | 0.897 | 0.869 | 0.915 | 0.35 | 0.458 | 0.398 | 0.389 | 0.354
NCI-H2023 | 0.614 | 0.524 | 0.749 | 0.538 | 0.731 | 0.628 | 0.827 | 0.766 | 0.229 | 0.2 | 0.207 | 0.278 | 0.205 | 0.188 | 0.234 | 0.245 | 0.183
NCI-H2085 | 0.956 | 0.826 | 0.902 | 1 | 0.451 | 0.425 | 0.423 | 0.492 | 0.764 | 0.6 | 0.585 | 1.04 | 0.601 | 0.524 | 0.538 | 0.574 | 0.467
NCI-H2087 | 1.08 | 1.02 | – | 1.07 | 0.166 | 0.185 | – | 0.162 | 0.646 | 0.63 | 0.544 | 0.678 | 0.311 | 0.203 | 0.325 | 0.26 | 0.135
NCI-H2126 | 0.718 | 0.709 | 0.758 | 0.789 | 0.847 | 0.905 | – | 0.972 | 0.627 | 0.662 | 0.684 | 0.777 | 0.586 | 0.576 | 0.607 | 0.454 | 0.428
NCI-H2170 | 0.735 | 0.301 | 0.692 | 0.712 | 0.58 | 0.486 | 0.559 | 0.545 | 0.272 | – | 0.265 | 0.289 | 0.44 | 0.424 | 0.477 | 0.439 | 0.401
NCI-H2347 | 1.01 | 1.02 | 0.757 | 1.04 | 0.626 | 0.164 | 0.552 | 0.71 | 0.413 | 0.441 | 0.357 | 0.412 | 0.641 | 0.635 | 0.657 | 0.539 | 0.571
NCI-H2405 | 0.708 | 0.675 | – | 0.785 | 0.667 | 0.625 | – | 0.576 | 1.02 | 0.977 | – | 1.17 | 0.756 | 0.731 | 0.699 | 0.517 | 0.58
NCI-H3122 | 0.814 | 0.761 | 0.896 | 0.862 | 0.138 | 0.123 | 0.0825 | 0.101 | 0.206 | 0.188 | 0.214 | 0.203 | 0.371 | 0.454 | 0.374 | 0.278 | 0.209
PC-3 [JPC-3] | 0.985 | – | 1.11 | 1.07 | 0.671 | – | 0.724 | 0.782 | – | – | 0.92 | 1.25 | 0.798 | 0.757 | 0.887 | 0.813 | 0.79
PC-14 | 0.881 | – | 0.907 | 0.903 | 0.234 | – | 0.18 | 0.148 | 0.147 | – | 0.126 | 0.134 | 0.244 | 0.243 | 0.248 | 0.196 | 0.221
RERF-LC-KJ | 0.583 | 0.686 | 0.873 | 0.771 | 1.26 | 0.991 | 1.26 | 1.31 | 0.501 | 0.486 | 0.441 | 0.48 | 0.668 | 0.638 | 0.706 | 0.5 | 0.536
SK-LU-1 | 0.996 | 0.96 | 0.682 | 0.758 | 0.208 | 0.219 | 0.171 | 0.218 | 0.928 | 0.891 | 0.861 | 0.974 | 0.649 | 0.645 | 0.633 | 0.577 | 0.589
SK-MES-1 | 0.829 | 0.574 | 0.723 | 0.776 | 0.866 | 0.553 | 0.646 | 0.745 | 0.891 | – | 0.858 | 0.92 | 0.363 | 0.376 | 0.358 | 0.292 | 0.297
SW 1573 | 0.769 | 0.667 | 0.781 | 0.551 | 0.16 | 0.583 | 0.377 | 0.194 | 0.872 | 0.777 | 0.798 | 0.832 | 0.489 | 0.453 | 0.626 | 0.365 | 0.359

— the supplement of paper PMC10307832
